Laboratory results as given in patent US8309718B2, “4-pyrazolyl-N-arylpyrimidin-2-amines and 4-pyrazolyl-N-heteroarylpyrimidin-2-amines as janus kinase inhibitors” (Incyte Corporation, priority 2007, dated 2012).

Biological target: T1, human JAK2 (Homo sapiens, UniProt O60674)
T1 construct: JAK2 (a.a. 828-1132); His tag (N); made in house; host or cells: insect cells (baculovirus)
Assay: In vitro JAK kinase assay (HTRF, phosphorylation of biotinylated peptide)
Format: biochemical
Details: catalytic domain a.a. 828-1132, 30 μM ATP, 500 nM peptide, room temperature 1 hr; read-out: JAK-2 IC50
Method in brief: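 His-tagged human JAK2 catalytic domain (a.a. 828-1132), baculovirus/insect-cell expressed; phosphorylation of 500 nM biotinylated peptide at 30 μM ATP in 50 mM Tris pH 7.8, 100 mM NaCl, 5 mM DTT, 0.01% BSA. 1 h at room temperature, EDTA stop, HTRF read (Eu-Py20/SA-APC); IC50.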

T1 sequence (O60674 828-1132): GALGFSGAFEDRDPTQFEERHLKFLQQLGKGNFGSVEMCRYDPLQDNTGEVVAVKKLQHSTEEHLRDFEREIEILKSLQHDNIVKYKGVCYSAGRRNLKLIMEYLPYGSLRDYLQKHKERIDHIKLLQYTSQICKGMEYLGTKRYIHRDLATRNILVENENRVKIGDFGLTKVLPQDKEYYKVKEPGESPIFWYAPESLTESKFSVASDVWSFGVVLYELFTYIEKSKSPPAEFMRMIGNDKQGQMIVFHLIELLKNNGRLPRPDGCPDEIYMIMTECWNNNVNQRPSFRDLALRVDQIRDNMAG

SMILES | IC50 [nM]
COc1cnc(Nc2cccc(-c3cnco3)c2)nc1-c1cnn(C(CC#N)C2CC2)c1 (racemic) [Example 320, 3-cyclopropyl-3-[4-(5-methoxy-2-{[3-(1,3-oxazol-5-yl)phenyl]amino}pyrimidin-4-yl)-1H-pyrazol-1-yl]propanenitrile] | < 100
COc1cnc(Nc2cccc([N+](=O)[O-])c2)nc1-c1cnn(C(CC#N)C2CC2)c1 (racemic) [Example 321, 3-cyclopropyl-3-(4-{5-methoxy-2-[(3-nitrophenyl)amino]pyrimidin-4-yl}-1H-pyrazol-1-yl)propanenitrile] | < 100
COc1cnc(Nc2cccc(C(=O)NC3CCOCC3)c2)nc1-c1cnn(C(CC#N)C2CC2)c1 (racemic) [Example 323, 3-({4-[1-(2-cyano-1-cyclopropylethyl)-1H-pyrazol-4-yl]-5-methoxypyrimidin-2-yl}amino)-N-(tetrahydro-2H-pyran-4-yl)benzamide] | < 100
COc1cnc(Nc2cccc(C(=O)N3CCCC3)c2)nc1-c1cnn(C(CC#N)C2CC2)c1 (racemic) [Example 324, 3-cyclopropyl-3-[4-(5-methoxy-2-{[3-(pyrrolidin-1-ylcarbonyl)phenyl]amino}pyrimidin-4-yl)-1H-pyrazol-1-yl]propanenitrile] | < 100
COc1cnc(Nc2cccc(C(=O)N3CCOCC3)c2)nc1-c1cnn(C(CC#N)C2CC2)c1 (racemic) [Example 328, 3-cyclopropyl-3-[4-(5-methoxy-2-{[3-(morpholin-4-ylcarbonyl)phenyl]amino}pyrimidin-4-yl)-1H-pyrazol-1-yl]propanenitrile] | < 100
COc1cnc(Nc2cccc(C(=O)N3CCC(O)CC3)c2)nc1-c1cnn(C(CC#N)C2CC2)c1 (racemic) [Example 329, 3-cyclopropyl-3-{4-[2-({3-[(4-hydroxypiperidin-1-yl)carbonyl]phenyl}amino)-5-methoxypyrimidin-4-yl]-1H-pyrazol-1-yl}propanenitrile] | < 100
COc1cnc(Nc2cccc(C(=O)N3CCC(OC)CC3)c2)nc1-c1cnn(C(CC#N)C2CC2)c1 (racemic) [Example 330, 3-cyclopropyl-3-{4-[5-methoxy-2-({3-[(4-methoxypiperidin-1-yl)carbonyl]phenyl}amino)pyrimidin-4-yl]-1H-pyrazol-1-yl}propanenitrile] | < 100
COc1cnc(Nc2cccc(C(=O)N3CCC(C#N)CC3)c2)nc1-c1cnn(C(CC#N)C2CC2)c1 (racemic) [Example 331, 1-[3-({4-[1-(2-cyano-1-cyclopropylethyl)-1H-pyrazol-4-yl]-5-methoxypyrimidin-2-yl}amino)benzoyl]piperidine-4-carbonitrile] | < 100
COc1cnc(Nc2cccc(C(=O)N3[C@@H]4CC[C@H]3C[C@@H](O)C4)c2)nc1-c1cnn(C(CC#N)C2CC2)c1 (mixture of isomers) [Example 332, 3-cyclopropyl-3-(4-{2-[(3-{[(3-endo)-3-hydroxy-8-azabicyclo[3.2.1]oct-8-yl]carbonyl}phenyl)amino]-5-methoxypyrimidin-4-yl}-1H-pyrazol-1-yl)propanenitrile] | < 100
COc1cnc(Nc2cccc(C(=O)NCc3cc(C)on3)c2)nc1-c1cnn(C(CC#N)C2CC2)c1 (racemic) [Example 333, 3-({4-[1-(2-cyano-1-cyclopropylethyl)-1H-pyrazol-4-yl]-5-methoxypyrimidin-2-yl}amino)-N-[(5-methylisoxazol-3-yl)methyl]benzamide] | < 100
COc1cnc(Nc2cccc(C(=O)N3CCC3)c2)nc1-c1cnn(C(CC#N)C2CC2)c1 (racemic) [Example 334, 3-[4-(2-{[3-(azetidin-1-ylcarbonyl)phenyl]amino}-5-methoxypyrimidin-4-yl)-1H-pyrazol-1-yl]-3-cyclopropylpropanenitrile] | < 100
COc1cnc(Nc2cccc(N3CCCS3(=O)=O)c2)nc1-c1cnn(C(CC#N)C2CC2)c1 (racemic) [Example 346, 3-cyclopropyl-3-[4-(2-{[3-(1,1-dioxidoisothiazolidin-2-yl)phenyl]amino}-5-methoxypyrimidin-4-yl)-1H-pyrazol-1-yl]propanenitrile] | < 100
COc1cnc(Nc2cccnc2)nc1-c1cnn(C(CC#N)CC2CCN(C(=O)c3ccc(F)cc3F)CC2)c1 (racemic) [Example 347, 4-[1-(2,4-difluorobenzoyl)piperidin-4-yl]-3-{4-[5-methoxy-2-(pyridin-3-ylamino)pyrimidin-4-yl]-1H-pyrazol-1-yl}butanenitrile] | < 100
Cc1cc(OC2CCC(CC#N)(n3cc(-c4ccnc(Nc5ccc(N6CCOCC6)cc5)n4)cn3)CC2)no1 (single isomer, unassigned) [Example 212, 2-(4-(5-methylisoxazol-3-yloxy)-1-(4-(2-(4-morpholinophenylamino)pyrimidin-4-yl)-1H-pyrazol-1-yl)cyclohexyl)acetonitrile] | < 100
CC1(C)NC(=O)O[C@]12CCN(C(=O)c1ccc(Nc3nccc(-c4cnn(C(CC#N)C5CCCC5)c4)n3)cc1)C2 (single isomer, unassigned) [Example 219, 3-cyclopentyl-3-(4-(2-(4-((S*)-4,4-dimethyl-2-oxo-1-oxa-3,7-diazaspiro[4.4]nonane-7-carbonyl)phenylamino)pyrimidin-4-yl)-1H-pyrazol-1-yl)propanenitrile] | < 100
Cc1cc(OC2CCC(CC#N)(n3cc(-c4ccnc(Nc5ccc(N6CCOCC6=O)cc5)n4)cn3)CC2)no1 (single isomer, unassigned) [Example 244, 2-(4-(5-methylisoxazol-3-yloxy)-1-(4-(2-(4-(3-oxomorpholino)phenylamino)pyrimidin-4-yl)-1H-pyrazol-1-yl)cyclohexyl)acetonitrile] | < 100
Cc1cc(OC2CCC(CC#N)(n3cc(-c4ccnc(Nc5ccc(N6CCCCC6=O)cc5)n4)cn3)CC2)no1 (single isomer, unassigned) [Example 245, 2-(4-(5-methylisoxazol-3-yloxy)-1-(4-(2-(4-(2-oxopiperidin-1-yl)phenylamino)pyrimidin-4-yl)-1H-pyrazol-1-yl)cyclohexyl)acetonitrile] | < 100
Cc1cc(OC2CCC(CC#N)(n3cc(-c4ccnc(Nc5ccc(-n6cccn6)cc5)n4)cn3)CC2)no1 (single isomer, unassigned) [Example 246, 2-(1-(4-(2-(4-(1H-pyrazol-1-yl)phenylamino)pyrimidin-4-yl)-1H-pyrazol-1-yl)-4-(5-methylisoxazol-3-yloxy)cyclohexyl)acetonitrile] | < 100
Cc1cc(OC2CCC(CC#N)(n3cc(-c4ccnc(Nc5cccc(-c6cnco6)c5)n4)cn3)CC2)no1 (single isomer, unassigned) [Example 247, 2-(4-(5-methylisoxazol-3-yloxy)-1-(4-(2-(3-(oxazol-5-yl)phenylamino)pyrimidin-4-yl)-1H-pyrazol-1-yl)cyclohexyl)acetonitrile] | < 100

The next lines start with the values.

IC50 [nM] | SMILES
< 100 | COC1CCN(C(=O)c2ccc(Nc3nccc(-c4cnn(C(CC#N)C5CCOCC5)c4)n3)cc2)CC1 (racemic) [Example 313, 3-{4-[2-({4-[(4-methoxypiperidin-1-yl)carbonyl]phenyl}amino)pyrimidin-4-yl]-1H-pyrazol-1-yl}-3-(tetrahydro-2H-pyran-4-yl)propanenitrile]
< 100 | N#CCC(C1CCOCC1)n1cc(-c2ccnc(Nc3ccc(C(=O)N4CCC(C#N)CC4)cc3)n2)cn1 (racemic) [Example 314, 1-{4-[(4-{1-[2-cyano-1-(tetrahydro-2H-pyran-4-yl)ethyl]-1H-pyrazol-4-yl}pyrimidin-2-yl)amino]benzoyl}piperidine-4-carbonitrile]
< 100 | N#CCC(C1CC1)n1cc(-c2ccnc(Nc3ccc(C(=O)N4CCC(C#N)CC4)cc3)n2)cn1 (racemic) [Example 318, 1-[4-({4-[1-(2-cyano-1-cyclopropylethyl)-1H-pyrazol-4-yl]pyrimidin-2-yl}amino)benzoyl]piperidine-4-carbonitrile]
< 100 | CCS(=O)(=O)N1CC(CC#N)(n2cc(-c3ccnc(Nc4ccc(C(=O)N5CCC(C#N)CC5)cc4)n3)cn2)C1 (racemic) [Example 319, 1-{4-[(4-{1-[3-(cyanomethyl)-1-(ethylsulfonyl)azetidin-3-yl]-1H-pyrazol-4-yl}pyrimidin-2-yl)amino]benzoyl}piperidine-4-carbonitrile]
< 100 | N#CCC1(n2cc(-c3ccnc(Nc4ccc(N5CCOCC5)cc4)n3)cn2)CC(C#N)C1 (single isomer, unassigned) [Example 248, 3-(cyanomethyl)-3-(4-(2-(4-morpholinophenylamino)pyrimidin-4-yl)-1H-pyrazol-1-yl)cyclobutanecarbonitrile]
< 100 | N#CCC1(n2cc(-c3ccnc(Nc4ccc(C(=O)N5CCOCC5)cc4)n3)cn2)CC(C#N)C1 (single isomer, unassigned) [Example 287, 3-(cyanomethyl)-3-(4-(2-(4-(morpholine-4-carbonyl)phenylamino)pyrimidin-4-yl)-1H-pyrazol-1-yl)cyclobutanecarbonitrile]
< 100 | N#CCC1(n2cc(-c3ccnc(Nc4ccc(C(=O)N5CCCC5)cc4)n3)cn2)CC(C#N)C1 (single isomer, unassigned) [Example 288, 3-(cyanomethyl)-3-(4-(2-(4-(pyrrolidine-1-carbonyl)phenylamino)pyrimidin-4-yl)-1H-pyrazol-1-yl)cyclobutanecarbonitrile]
< 100 | N#CCC1(n2cc(-c3ccnc(Nc4ccc(C(=O)NC5CCOCC5)cc4)n3)cn2)CC(C#N)C1 (single isomer, unassigned) [Example 289, 4-(4-(1-(3-cyano-1-(cyanomethyl)cyclobutyl)-1H-pyrazol-4-yl)pyrimidin-2-ylamino)-N-(tetrahydro-2H-pyran-4-yl)benzamide]
< 100 | N#CCC1(n2cc(-c3ccnc(Nc4ccc(C(=O)N5CC[C@@H](O)C5)cc4)n3)cn2)CC(C#N)C1 (single isomer, unassigned) [Example 290]
